Each structure is given as a SMILES string. Entries after “also recorded” stand apart in the source; their conditions may differ. Peptide text beside a SMILES is read from it.

Data set [1] concerns normal human epidermal keratinocytes (nHEK). The data set can be described thus: Neutral Red Cell Viability assay in normal keratinocytes. The following applies: FIG. 1A dashed line. Type of data set: cell-based. The method, then:
Human skin cancer cell lines (SCC12B.2, SCC13, SRB12) were maintained in Dulbecco's modified Eagle's medium (DMEM) (Invitrogen, Carlsbad, Calif., USA) supplemented with 1% penicillin (10 000 U/ml)-streptomycin (10 000 μg/ml) (PenStrep) (Invitrogen) and 10% fetal bovine serum (Gemini Bio-Products, Sacramento, Calif., USA) at 37° C. and 5% CO2. Normal human epidermal keratinocytes (nHEK) (Thermo Scientific, Waltham, Mass., USA) isolated from neonatal foreskin were cultured in EpiLife medium (Invitrogen) supplemented with human keratinocyte growth supplement (Invitrogen) and 1% PenStrep (Invitrogen). […]
To determine the half maximal inhibitory concentration (IC50) for ES1P2 in SCC12B.2 and nHEK cells, cells were plated in a 96-well plate at a density of 6×10^3 cells/well. […] Neutral Red Cell Viability assays were performed, where absorbance was measured using a Cytation 5 multi-mode plate reader (BioTek). […]

In data set [2] the target is T1, 14-3-3ε heterodimerization (Homo sapiens, UniProt P62258).
T1 construct: endogenous in cells; host or cells: SCC12B.2
T1 sequence (P62258 1-255): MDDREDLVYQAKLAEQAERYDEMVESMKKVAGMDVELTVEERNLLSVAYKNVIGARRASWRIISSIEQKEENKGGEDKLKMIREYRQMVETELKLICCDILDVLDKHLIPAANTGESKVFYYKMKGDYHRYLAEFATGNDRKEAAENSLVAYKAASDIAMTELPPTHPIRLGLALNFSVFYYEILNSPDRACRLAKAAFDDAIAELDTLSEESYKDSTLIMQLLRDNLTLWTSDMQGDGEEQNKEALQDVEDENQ
The data set can be described thus: Co-immunoprecipitation / immunoblot of 14-3-3ε heterodimerization. As to conditions: SCC12B.2 cells, 20 μM, 48 hours, vs vehicle. It counts as cell-based. Here is the method:
Co-Immunoprecipitation was performed using a Dynabeads Protein G Immunoprecipitation kit (Life Technologies, Carlsbad, Calif., USA). Beads were coupled to antibodies targeting 14-3-3ε (Fisher Scientific, Waltham, Mass., USA) or Akt (Thermo Fisher) at a ratio of 7 μg of antibody for every 1 mg of beads according to the manufacturers protocol. SCC12B.2 cells were treated with vehicle (20 mM Tris buffer, pH 7.5) or fresh ES1P2 targeting peptide daily at the IC50 concentration for 48 hours in Opti-MEM I Reduced Serum Medium (Invitrogen) and collected by trypsinization. […]
Protein was collected by either standard whole-cell lysis using ice-cold radioimmunoprecipitation assay (RIPA) lysis buffer supplemented with protease (Roche Life Scientific) and phosphatase inhibitors (NaF, Na3VO4) or by nuclear/cytosolic extraction using the NE-PER Nuclear and Cytoplasmic Protein Extraction Reagent Kit according to the manufacturer's protocol (Pierce, Rockford, Ill., USA). […] Protein concentration was assessed with the Bradford assay. […] Bands were detected using horseradish peroxidase-conjugated secondary antibodies (IgG mouse or rabbit) (Cell Signaling) and visualized using western lightning plus chemiluminescent reagent (MidSci, Valley Park, Mo., USA) and signal read on a Chemidoc XRS Molecular Imager (Bio-Rad Laboratories, Hercules, Calif., USA).

With `NCCCC[C@H](NC(=O)[C@H](Cc1c[nH]c2ccccc12)NC(=O)[C@H](Cc1ccc(O)cc1)NC(=O)[C@@H](N)Cc1c[nH]c2ccccc12)C(N)=O` [ES1P2, Trp-Tyr-Trp-Lys-NH2] (H-WYWK-NH2), the “toxicity to normal keratinocytes” value in data set [1] is “killed SCC cells but not normal keratinocytes; also recorded: nontoxic”. In addition, the 14-3-3ε heterodimerization entry in data set [2] is reported as “reduces 14-3 3ε heterodimerization”.

The values above are taken from patent publication US11685766B2, “14-3-3 targeting peptides for cancer treatment” (Creighton University, priority 2019, dated 2023).
